Source: patent US20190030023A1, “METHODS FOR TREATING CANCER” (X4 Pharmaceuticals, Inc., priority 2016, published 2019)
Values after ≈ are worked out from the molar mass of the structure shown.

What was measured:
[1] = tested on: unresectable or metastatic melanoma; conditions: Phase 3 trial, P<0.001 pembrolizumab vs ipilimumab; cited from earlier work
[2] = tested on: murine models of melanoma, renal cell carcinoma, and ovarian cancer; conditions: cited from earlier work
[3] = tested on: pancreatic adenocarcinoma; conditions: cited from earlier work
in vivo = conditions: terminal half-life
Protocol: In certain embodiments, the dosage composition may be provided twice a day in divided dosage, approximately 12 hours apart. In other embodiments, the dosage composition may be provided once daily. […] Dosage for oral administration may be from about 100 mg to about 1200 mg once or twice per day.

[4] = Phase 1 and 2a trials; suggests high tissue penetrance; cited from earlier work
[5] = Solubility of X4P-001 by pH and in water; type: physicochemical; conditions: for solubility: aqueous buffer
[6] = tested on: circulating white blood cells (WBCs); conditions: Phase 1 and 2a trials, oral administration; cited from earlier work

Pembrolizumab: humanized IgG4 kappa monoclonal antibody that blocks the interaction between PD-1 and its ligands, PD-L1 and PD-L2
objective response rate [1]: 33%

ipilimumab: anti-CTLA-4 antibody
objective response rate [1]: 12%

c1cc(CN2CCCNCCNCCCNCC2)ccc1CN1CCCNCCNCCCNCC1 [Plerixafor]
anti-tumor activity, including decreased metastasis and increased overall survival [2]: significant anti-tumor activity
T-cell accumulation among the cancer cells ([3]; CXCR4 antagonist alone): induced rapid T-cell accumulation
tumor growth ([3]; in combination with anti-PD-L1): synergistically decreased tumor growth

NCCCCN(Cc1nc2ccccc2[nH]1)[C@H]1CCCc2cccnc21 [X4P-001]
half-life (in vivo; approximate value): ~14.5 h
half-life (in vivo; range): 12 to 24 h
volume of distribution (VL) [4]: high
solubility ([5]; pH 9.0 (sparingly soluble)): 10.7 mg/mL (≈ 30.6 mM)
solubility ([5]; pH 10.0 (slightly soluble)): 2 mg/mL (≈ 5.72 mM)
solubility ([5]; pH range 3.0 to 8.0 (freely soluble)): > 100 mg/mL
solubility in water ([5]; water): only slightly soluble
pharmacodynamic activity: changes in circulating white blood cells (WBCs) [6]: dose- and concentration-related changes
anti-tumor activity, including decreased metastasis and increased overall survival [2]: significant anti-tumor activity
